Reference: PubChem BioAssay AID1963435 (Molecular Pharmacology Branch, DTP, NCI, 2024)

Tested on: PANC-1 complex spheroid growth, percent test/control
Test: Anticancer human tumor PANC-1 cell line growth inhibition [Asc];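 also: spheroids exposed to agents for 7 days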;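 as to viability, T/C: percent viability relative to DMSO vehicle wells taken as 100%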
Conditions: for IC50: curve of first compound; for viability, T/C: stronger effect = lower value
Summary of the method: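 Tumor cells were grown as complex spheroids with human endothelial cells (HUVEC) and human mesenchymal stem cells as stroma. Agents were tested alone and in combination, in half-log steps down from the clinical Cmax, or from 10 microM where Cmax was unknown.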

IC50 (second compound 0.00949 µM): > 3 µM
IC50 (second compound 0.03 µM): > 3 µM
IC50 (second compound 0.0949 µM): > 3 µM
IC50 (second compound 0.3 µM): > 3 µM
IC50 (second compound 0.949 µM): > 3 µM
IC50 (second compound 3 µM): > 3 µM
Compound: Cc1nc(N2CCC3(CC2)COC(C)C3N)c(CO)nc1Sc1ccnc(N)c1Cl (configuration not stated) + CCN1C(C(=O)NC23CCC(C(=O)O)(CC2)CC3)C(c2cccc(Cl)c2F)C2(C(=O)Nc3cc(Cl)ccc32)C12CCCCC2
viability, T/C (second compound 0.00949 µM, first compound 0.00949 µM): 109%
viability, T/C (second compound 0.00949 µM, first compound 0.03 µM): 95.8%
viability, T/C (second compound 0.00949 µM, first compound 0.0949 µM): 92.8%
viability, T/C (second compound 0.00949 µM, first compound 0.3 µM): 87.7%
viability, T/C (second compound 0.00949 µM, first compound 0.949 µM): 92.1%
viability, T/C (second compound 0.00949 µM, first compound 3 µM): 92.6%
viability, T/C (second compound 0.03 µM, first compound 0.00949 µM): 102%
viability, T/C (second compound 0.03 µM, first compound 0.03 µM): 101%
viability, T/C (second compound 0.03 µM, first compound 0.0949 µM): 98.7%
viability, T/C (second compound 0.03 µM, first compound 0.3 µM): 89.5%
viability, T/C (second compound 0.03 µM, first compound 0.949 µM): 90%
viability, T/C (second compound 0.03 µM, first compound 3 µM): 94.1%
viability, T/C (second compound 0.0949 µM, first compound 0.00949 µM): 103%
viability, T/C (second compound 0.0949 µM, first compound 0.03 µM): 102%
viability, T/C (second compound 0.0949 µM, first compound 0.0949 µM): 98.6%
viability, T/C (second compound 0.0949 µM, first compound 0.3 µM): 92%
viability, T/C (second compound 0.0949 µM, first compound 0.949 µM): 93.7%
viability, T/C (second compound 0.0949 µM, first compound 3 µM): 91.3%
viability, T/C (second compound 0.3 µM, first compound 0.00949 µM): 98.7%
viability, T/C (second compound 0.3 µM, first compound 0.03 µM): 98.1%
viability, T/C (second compound 0.3 µM, first compound 0.0949 µM): 94.5%
viability, T/C (second compound 0.3 µM, first compound 0.3 µM): 96.7%
viability, T/C (second compound 0.3 µM, first compound 0.949 µM): 106%
viability, T/C (second compound 0.3 µM, first compound 3 µM): 99.2%
viability, T/C (second compound 0.949 µM, first compound 0.00949 µM): 113%
viability, T/C (second compound 0.949 µM, first compound 0.03 µM): 91.9%
viability, T/C (second compound 0.949 µM, first compound 0.0949 µM): 108%
viability, T/C (second compound 0.949 µM, first compound 0.3 µM): 101%
viability, T/C (second compound 0.949 µM, first compound 0.949 µM): 108%
viability, T/C (second compound 0.949 µM, first compound 3 µM): 92.9%
viability, T/C (second compound 3 µM, first compound 0.00949 µM): 115%
viability, T/C (second compound 3 µM, first compound 0.03 µM): 116%
viability, T/C (second compound 3 µM, first compound 0.0949 µM): 103%
viability, T/C (second compound 3 µM, first compound 0.3 µM): 108%
viability, T/C (second compound 3 µM, first compound 0.949 µM): 110%
viability, T/C (second compound 3 µM, first compound 3 µM): 103%
